In ChEMBL document CHEMBL6182944, “Substrate Specificity of the Organic Cation Transporters MATE1 and MATE2K and Functional Overlap with OCT1 and OCT2” (J Med Chem, 2025):

Columns and labels:
[1] = target: T1, Multidrug and toxin extrusion protein 2 (Homo sapiens, UniProt Q86VL8); assay: Substrate activity at MATE2-K (unknown origin) expressed in HEK293 cells assessed as ratio of uptake by the enantiomer with higher value to enantiomer with lower value at 2.5 uM measured after 1 min by HPLC-MS/MS analysis; type: cell-based; settings: hek293, 1 min
T1 sequence (Q86VL8 whole entry): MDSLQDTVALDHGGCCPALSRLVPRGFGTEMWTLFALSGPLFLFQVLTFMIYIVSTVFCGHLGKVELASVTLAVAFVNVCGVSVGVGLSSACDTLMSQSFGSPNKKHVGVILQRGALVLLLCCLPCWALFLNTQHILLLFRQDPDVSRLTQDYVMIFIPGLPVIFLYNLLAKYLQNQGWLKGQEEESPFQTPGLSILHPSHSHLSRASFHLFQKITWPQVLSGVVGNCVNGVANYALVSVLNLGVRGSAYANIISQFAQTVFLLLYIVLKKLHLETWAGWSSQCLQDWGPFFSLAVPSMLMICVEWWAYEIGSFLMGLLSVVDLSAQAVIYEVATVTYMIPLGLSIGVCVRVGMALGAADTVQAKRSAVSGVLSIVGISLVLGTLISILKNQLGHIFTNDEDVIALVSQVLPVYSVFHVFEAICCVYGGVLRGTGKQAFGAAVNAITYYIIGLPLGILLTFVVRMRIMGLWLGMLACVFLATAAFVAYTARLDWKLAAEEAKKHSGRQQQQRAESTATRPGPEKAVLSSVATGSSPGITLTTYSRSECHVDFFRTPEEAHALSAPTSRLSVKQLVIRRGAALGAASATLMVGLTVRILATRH

[2] = target: T2, Multidrug and toxin extrusion protein 1 (Homo sapiens, UniProt Q96FL8); assay: Substrate activity at MATE1 (unknown origin) expressed in HEK293 cells assessed as ratio of uptake by the enantiomer with higher value to enantiomer with lower value at 2.5 uM measured after 1 min by HPLC-MS/MS analysis; type: cell-based; settings: hek293, 1 min
T2 sequence (Q96FL8 whole entry): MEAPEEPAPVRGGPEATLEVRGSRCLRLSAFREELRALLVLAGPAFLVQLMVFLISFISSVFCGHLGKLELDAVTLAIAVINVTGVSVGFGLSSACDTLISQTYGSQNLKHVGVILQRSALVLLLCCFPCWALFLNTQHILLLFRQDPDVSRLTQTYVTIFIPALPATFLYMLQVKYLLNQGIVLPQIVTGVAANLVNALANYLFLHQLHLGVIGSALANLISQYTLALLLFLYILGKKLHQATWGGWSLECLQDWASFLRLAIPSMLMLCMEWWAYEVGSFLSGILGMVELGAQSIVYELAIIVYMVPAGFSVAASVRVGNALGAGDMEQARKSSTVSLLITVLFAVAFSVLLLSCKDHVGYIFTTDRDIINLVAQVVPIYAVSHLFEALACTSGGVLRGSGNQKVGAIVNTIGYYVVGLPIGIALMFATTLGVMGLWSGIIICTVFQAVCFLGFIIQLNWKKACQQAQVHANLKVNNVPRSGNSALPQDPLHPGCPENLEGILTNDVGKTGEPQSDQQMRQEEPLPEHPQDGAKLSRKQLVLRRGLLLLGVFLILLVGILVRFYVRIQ

MATE1 = target: T3, MATE1 (Homo sapiens, UniProt Q96FL8); assay: in vitro
T3 sequence (Q96FL8 whole entry): T2 sequence (Q96FL8 whole entry)

[3] = target: T1, Multidrug and toxin extrusion protein 2; assay: Substrate activity at MATE2-K (unknown origin) expressed in HEK293 cells assessed as intrinsic clearance by measuring ratio of Vmax (maximum transport velocity) over Km measured per mg of protein by HPLC-MS/MS analysis; type: cell-based
[4] = target: T2, Multidrug and toxin extrusion protein 1; assay: Substrate activity at MATE1 (unknown origin) expressed in HEK293 cells assessed as intrinsic clearance by measuring ratio of Vmax (maximum transport velocity) over Km measured per mg of protein by HPLC-MS/MS analysis; type: cell-based
[5] = target: T2, Multidrug and toxin extrusion protein 1; assay: Substrate activity at MATE1 (unknown origin) expressed in HEK293 cells assessed as Vmax (maximum transport velocity) by HPLC-MS/MS analysis; type: cell-based
MATE2-K = target: T4, MATE2-K (Homo sapiens, UniProt Q86VL8); assay: in vitro
T4 sequence (Q86VL8 whole entry): T1 sequence (Q86VL8 whole entry)

[6] = HEK293 cells expressing MATE2-K

Compound | uptake ratio at 1 min, 2.5 µM (MATE1; HEK293 cells expressing MATE1) | uptake ratio at 1 min, 2.5 µM (MATE2-K; [6]) | other results
O=C(O[C@H]1C[N+]2(CCCOc3ccccc3)CCC1CC2)C(O)(c1cccs1)c1cccs1.[Br-] (mixture of isomers) [ACLIDINIUM BROMIDE] | – | – | Ratio [1]: > 1; Ratio [2]: > 1
C#CCNC1CCc2ccccc21 (racemic) | – | – | Ratio [1]: > 1; Ratio [2]: > 1
CNCCC(Oc1ccccc1C)c1ccccc1 (racemic) | – | – | Ratio [1]: > 1; Ratio [2]: 1
CNCC(O)c1cccc(O)c1 (racemic) | – | – | Ratio [1]: > 1; Ratio [2]: > 1
NC1CONC1=O (racemic) | – | – | Ratio [1]: > 1; Ratio [2]: 1
COc1ccccc1OCCNCC(O)COc1cccc2[nH]c3ccccc3c12 (racemic) [CARVEDILOL] | – | – | Ratio [1]: > 1; Ratio [2]: 1
CN(C)CCCC1(c2ccc(F)cc2)OCc2cc(C#N)ccc21 (racemic) [CITALOPRAM] | – | – | Ratio [1]: > 1; Ratio [2]: > 1
COc1ccc(C(CN(C)C)C2(O)CCCCC2)cc1 (racemic) [VENLAFAXINE] | – | – | Ratio [1]: > 1; Ratio [2]: > 1
CC(CCc1ccc(O)cc1)NCCc1ccc(O)c(O)c1 (configuration not stated) [DOBUTAMINE] | > 2 | > 2 | CL [3]: 5.71 µL/min; CL [4]: 29.2 µL/min; Vmax [5]: 2586 pmol/min
NCCc1ccc(O)c(O)c1 [DOPAMINE] | – | – | uptake ratio at 1 min, 2.5 µM (MATE1; hek293): > 2; CL [3]: 1.27 µL/min; CL [4]: 19.2 µL/min; Vmax [5]: 10148 pmol/min; uptake ratio at 1 min, 2.5 µM (MATE2-K; hek293): > 2
CN(C)CCC=C1c2ccccc2COc2ccccc21 [DOXEPIN] | – | – | Ratio [1]: 1; Ratio [2]: 1
Nc1nc(=O)n([C@@H]2CS[C@H](CO)O2)cc1F [EMTRICITABINE] | – | – | CL [3]: 3.02 µL/min; CL [4]: 4.56 µL/min; Vmax [5]: 4523 pmol/min
CNC[C@H](O)c1ccc(O)c(O)c1 [EPINEPHRINE] | – | – | uptake ratio at 1 min, 2.5 µM (MATE1; hek293): > 2; CL [3]: 1.97 µL/min; CL [4]: 21.1 µL/min; Vmax [5]: 22773 pmol/min; uptake ratio at 1 min, 2.5 µM (MATE2-K; hek293): > 2
C[C@H]1N=C(N(C)C)N=C(N)N1 [IMEGLIMIN] | > 2 | > 2 | CL [3]: 34.5 µL/min; CL [4]: 108 µL/min; Vmax [5]: 6242 pmol/min
C[N@+]1(CC2CC2)CC[C@]23c4c5ccc(O)c4O[C@H]2C(=O)CC[C@@]3(O)[C@H]1C5 [METHYLNALTREXONE] | – | – | Vmax [5]: 56 pmol/min
CNC(=C[N+](=O)[O-])NCCSCc1csc(CN(C)C)n1 [NIZATIDINE] | > 2 | > 2 | –
NCC(O)c1cccc(O)c1 (configuration not stated) [NORFENEFRINE] | > 2 | < 2 | –
COc1cc(C(O)CN)ccc1O (configuration not stated) [NORMETANEPHRINE] | < 2 | < 2 | –
NCC(O)c1ccc(O)cc1 (configuration not stated) [OCTOPAMINE] | > 2 | < 2 | –
CC[N+](C)(CC)CCOC(=O)C(O)(c1ccccc1)C1CCCCC1 (configuration not stated) [OXYPHENONIUM] | > 2 | > 2 | –
CC(C)(CO)[C@@H](O)C(=O)NCCC(=O)O [PANTOTHENIC ACID] | < 2 | < 2 | –
NCCc1ccccc1 [PHENETHYLAMINE] | < 2 | < 2 | –
CCC1(c2ccccc2)C(=O)NC(=O)NC1=O [PHENOBARBITAL] | < 2 | < 2 | –
CC[C@@H]1C(=O)OC[C@@H]1Cc1cncn1C [PILOCARPINE] | < 2 | < 2 | –
CC(C)NCC(O)COc1cccc2[nH]ccc12 (configuration not stated) [PINDOLOL] | > 2 | < 2 | –
NC(=O)C1(N2CCCCC2)CCN(CCCC(=O)c2ccc(F)cc2)CC1 [PIPAMPERONE] | < 2 | < 2 | –

Compound | uptake ratio at 1 min, 2.5 µM (MATE1; HEK293 cells expressing MATE1) | uptake ratio at 1 min, 2.5 µM (MATE2-K; [6]) | other results
CN1CCN(CC(=O)N2c3ccccc3C(=O)Nc3cccnc32)CC1 [PIRENZEPINE] | > 2 | < 2 | –
CC(=O)Nc1ccc(OCC(O)CNC(C)C)cc1 (configuration not stated) [PRACTOLOL] | – | – | uptake ratio at 1 min, 2.5 µM (MATE1; hek293): > 2; uptake ratio at 1 min, 2.5 µM (MATE2-K; hek293): > 2
[H]/N=C(\N/C(=N/[H])Nc1ccc(Cl)cc1)NC(C)C [PROGUANIL] | > 2 | > 2 | –
CC(C)[N+](C)(CCOC(=O)C1c2ccccc2Oc2ccccc21)C(C)C [PROPANTHELINE] | > 2 | > 2 | –
NCCCCN [PUTRESCINE] | – | – | uptake ratio at 1 min, 2.5 µM (MATE1; hek293): < 2; uptake ratio at 1 min, 2.5 µM (MATE2-K; hek293): < 2
Cc1ncc(CO)c(CO)c1O [PYRIDOXINE] | – | – | uptake ratio at 1 min, 2.5 µM (MATE1; hek293): > 2; CL [3]: 1.2 µL/min; CL [4]: 2.37 µL/min; Vmax [5]: 10014 pmol/min; uptake ratio at 1 min, 2.5 µM (MATE2-K; hek293): < 2
CNC(=C[N+](=O)[O-])NCCSCc1ccc(CN(C)C)o1 [RANITIDINE] | – | – | uptake ratio at 1 min, 2.5 µM (MATE1; hek293): > 2; uptake ratio at 1 min, 2.5 µM (MATE2-K; hek293): > 2
C#CCN[C@@H]1CCc2ccccc21 [RASAGILINE] | – | – | Vmax [5]: 194 pmol/min
CN(C)CCc1c[nH]c2ccc(Cn3cncn3)cc12 [RIZATRIPTAN] | > 2 | > 2 | –
CNCc1ccc(-c2[nH]c3cc(F)cc4c3c2CCNC4=O)cc1 [RUCAPARIB] | > 2 | > 2 | –
CCN(CC)CCNC(=O)c1ccc(NS(C)(=O)=O)cc1 [SEMATILIDE] | > 2 | > 2 | –
NCCc1c[nH]c2ccc(O)cc12 [SEROTONIN] | > 2 | > 2 | –
N[C@@H](CC(=O)N1CCn2c(nnc2C(F)(F)F)C1)Cc1cc(F)c(F)cc1F [SITAGLIPTIN] | > 2 | > 2 | –
CC(C)NCC(O)c1ccc(NS(C)(=O)=O)cc1 (configuration not stated) [SOTALOL] | > 2 | < 2 | –
NCCCCNCCCN [SPERMIDINE] | < 2 | < 2 | –
NCCCNCCCCNCCCN [SPERMINE] | – | – | uptake ratio at 1 min, 2.5 µM (MATE1; hek293): < 2; uptake ratio at 1 min, 2.5 µM (MATE2-K; hek293): < 2
Cn1nnc2c(C(N)=O)ncn2c1=O [TEMOZOLOMIDE] | < 2 | < 2 | –
CC(C)(C)NCC(O)c1cc(O)cc(O)c1 (configuration not stated) [TERBUTALINE] | > 2 | > 2 | –
CC[C@@]1(O)C(=O)OCc2c1cc1n(c2=O)Cc2cc3c(CN(C)C)c(O)ccc3nc2-1 [TOPOTECAN] | > 2 | > 2 | –
O=C(O[C@H]1C[C@H]2CC[C@@H](C1)[N+]21CCCC1)C(O)(c1ccccc1)c1ccccc1 [TROSPIUM] | > 2 | < 2 | –
C=CCN1CCCC1CNC(=O)c1cc(S(N)(=O)=O)cc(OC)c1OC (configuration not stated) [VERALIPRIDE] | > 2 | > 2 | –
O=C(NCCNCC(O)COc1ccc(O)cc1)N1CCOCC1 (configuration not stated) [XAMOTEROL] | > 2 | > 2 | –
Nc1ccn([C@H]2CC[C@@H](CO)O2)c(=O)n1 [ZALCITABINE] | – | – | CL [4]: 6.53 µL/min; Vmax [5]: 10171 pmol/min
O=c1ncccn1[C@@H]1O[C@H](CO)[C@@H](O)[C@H]1O [ZEBULARINE] | < 2 | < 2 | –
CN(C)CCc1c[nH]c2ccc(C[C@H]3COC(=O)N3)cc12 [ZOLMITRIPTAN] | – | – | CL [3]: 17.6 µL/min; CL [4]: 65.2 µL/min; Vmax [5]: 2992 pmol/min
